Measured values published in ChEMBL document CHEMBL1151414, “Plant anticancer agents. XXIII. 6 alpha-senecioyloxychaparrin, a new antileukemic quassinoid from Simaba multiflora” (1983).
Converted amounts (≈) assume the structure as drawn.

What was measured:
Format in all cases: functional
P388 [1] = assay: In vivo antitumor activity against mouse P388 cells at 1.25 mg/kg relative to control
P388 [2] = assay: In vivo antitumor activity against mouse P388 cells at 2.5 mg/kg relative to control
P388 [3] = assay: In vivo antitumor activity against mouse P388 cells at 0.31 mg/kg relative to control
KB = assay: Cytotoxicity against human KB cells by NCI method; conditions: read-out: ED50 (the source's name)
P388 [4] = assay: In vivo antitumor activity against mouse P388 cells at 0.63 mg/kg relative to control
P388 [5] = assay: In vivo antitumor activity against mouse P388 cells at 3.0 mg/kg relative to control
P388 [6] = assay: In vivo antitumor activity against mouse P388 cells at 1.5 mg/kg relative to control
P388 [7] = assay: In vivo antitumor activity against mouse P388 cells at 0.38 mg/kg relative to control
P388 [8] = assay: In vivo antitumor activity against mouse P388 cells at 0.75 mg/kg relative to control

What does the source list for `CC(C)=CC(=O)O[C@@H]1[C@H]2C(C)=CC(=O)[C@H](O)[C@]2(C)[C@H]2[C@]3(O)OC[C@@]24[C@@H]1OC(=O)C[C@H]4[C@@H](C)[C@H]3O`?
T/C (P388 [1]): 133%; T/C (P388 [2]): 136%; T/C (P388 [3]): 145%; EC50 (KB): 3 ng/mL (≈ 6.3 nM); T/C (P388 [4]): 176%

With `CC1=CC(=O)[C@@H](O)[C@]2(C)[C@H]3[C@@]4(O)OC[C@@]35[C@@H](C[C@@H]12)OC(=O)C[C@H]5[C@@H](C)[C@H]4O` [CHAPARRINONE] as the compound, how does the EC50 (KB) read?
Its EC50 is 25 ng/mL (≈ 66.1 nM).

For `CC(C)=CC(=O)O[C@@H]1[C@H]2C(C)=C[C@H](O)[C@H](O)[C@]2(C)[C@H]2[C@]3(O)OC[C@@]24[C@@H]1OC(=O)C[C@H]4[C@@H](C)[C@H]3O`, which EC50 (KB) is on record?
The EC50 was 3 ng/mL (≈ 6.27 nM).

What about the T/C (P388 [5]) of the same compound?
The T/C was 133%.

What about the T/C (P388 [6]) of the same compound?
The T/C was 133%.

What about the T/C (P388 [7]) of the same compound?
The T/C was 142%.

What about the T/C (P388 [8]) of the same compound?
The T/C was 160%.
